Like-named read-outs stand apart in the source and are kept apart here. No end group written: not given here.
Key:
Assay in all cases: biochemical
DR4w4 (DRB1*0401) = DR4w4 (DRB1*0401) (Homo sapiens, UniProt P01903+P01911, A100K/A169T/F76Y/I96L/K127E/L162R/M171V/N62H/P40V/Q125Y/R42H/S133A/S149N/S66Y/V115G/V209L/W38E); type: binding
DR7 (DRB1*0701) = DR7 (DRB1*0701) (Homo sapiens, UniProt P01903+P01911, A100R/A102G/A103Q/D57E/D86V/E43K/F76Y/K127E/L162R/M171V/P40G/Q125H/Q99D/R33Q/R42Y/R54Q/S133A/S66F/T210M/V115G/Y107V/Y59L/Y89S); type: binding
DRB4*0101 = DRB4*0101 (Homo sapiens, UniProt P01903+P13762, G164S); type: binding
DRB1*1501 = DRB1*1501 (Homo sapiens, UniProt P01903+P01911); type: binding
DRB1*1302 = DRB1*1302 (Homo sapiens, UniProt P01903+P01911, A100E/A169T/K41T/L162R/M171V/P40S/Q125H/Q178H/Q39Y/Q99D/R42S/S66N/T262R/V115G/W38E/Y61H); type: binding
DRB5*0101 = DRB5*0101 (Homo sapiens, UniProt P01903+Q30154)
DRB1*1101 = DRB1*1101 (Homo sapiens, UniProt P01903+P01911, A100R/A169T/A87E/I96F/K41T/L162R/M171V/P40S/Q125H/Q178H/Q39Y/Q99D/R42S/S66Y/T262R/V115G/W38E)
DRB1*0901 = DRB1*0901 (Homo sapiens, UniProt P01903+P01911, A100R/A103E/D57H/D86V/F55Y/F60I/F76Y/I96F/K127E/L162R/M171V/P40D/Q125H/Q99R/R33Q/R42F/S133A/S66N/T210M/V115G/W38K/Y107V/Y59G/Y89S); type: binding
DRB1*0802 = DRB1*0802 (Homo sapiens, UniProt P01903+P01911, A100R/A103L/A169T/F76Y/H45Y/I96F/K41T/L162R/M171V/P40S/Q125H/Q178H/Q39Y/Q99D/R218S/R42G/S66Y/V115G/W38E); type: binding
DR1 (DRB1*0101) = DR1 (DRB1*0101) (Homo sapiens, UniProt P01903+P01911, A100R/D57E/F55L/F60I/F76Y/I96L/L162R/M171V/P40L/Q125E/R42F/V115G/Y59C); type: binding
HLA-A*0201 (HLA-A2.1) = HLA-A*0201 (HLA-A2.1) (Homo sapiens, UniProt P04439, D140Y/D185E/D98H/E176V/E277Q/G131W/G231S/I119V/I121R/I166T/I218V/L300P/L318F/N151K/N90K/P208A/P217A/Q86G/Q94H/R138H/R169H/T345S); type: binding
A*6802 = A*6802 (Homo sapiens, UniProt P04439, A269V/D140Y/D185E/E176V/E277Q/E87N/F33Y/G231S/I121R/I166T/I218V/L180W/L300P/L318F/N151K/P208A/P217A/Q86R/R138H/R169H/S129P/T345S/V36M); type: binding
A*0206 = A*0206 (Homo sapiens, UniProt P04439, D140Y/D185E/D98H/E176V/E277Q/F33Y/G131W/G231S/I119V/I121R/I166T/I218V/L300P/L318F/N151K/N90K/P208A/P217A/Q86G/Q94H/R138H/R169H/T345S); type: binding
A*0202 = A*0202 (Homo sapiens, UniProt P04439, D140Y/D185E/D98H/E176V/E277Q/G131W/G231S/I119L/I121R/I166T/I218V/L180W/L300P/L318F/N151K/N90K/P208A/P217A/Q67R/Q86G/Q94H/R138H/R169H/T345S); type: binding

Chain of DRB1*1302 (P01903 26-254 limits assumed, other chains not shown): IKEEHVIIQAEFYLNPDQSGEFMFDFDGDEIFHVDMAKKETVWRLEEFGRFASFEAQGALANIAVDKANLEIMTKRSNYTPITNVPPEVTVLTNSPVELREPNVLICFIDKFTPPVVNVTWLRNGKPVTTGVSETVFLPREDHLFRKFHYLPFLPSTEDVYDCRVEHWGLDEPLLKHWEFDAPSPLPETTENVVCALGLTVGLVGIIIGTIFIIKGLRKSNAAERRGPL
Chain of DRB1*1101 (P01903 26-254 limits assumed, other chains not shown): as above

Compound “702.17 (AYAAAKA; also: non-natural residues (20)) [Peptide 702.17]” has an IC50 (DR4w4 (DRB1*0401); read-out: DRB1*0401) of 250 nM and an IC50 (DR7 (DRB1*0701); read-out: DRB1*0701) of 8.33 µM.
Work on CC[C@H](C)[C@H](NC(=O)[C@@H](NC(=O)[C@H](CCSC)NC(=O)[C@H](Cc1ccc(O)cc1)NC(=O)CNC(=O)[C@@H](NC(=O)[C@H](CO)NC(=O)[C@@H](NC(=O)[C@H](CCC(N)=O)NC(=O)[C@@H](NC(=O)[C@H](CO)NC(=O)[C@H](CC(N)=O)NC(=O)[C@@H]1CCCN1C(=O)[C@@H](NC(=O)[C@@H](N)[C@@H](C)O)[C@@H](C)CC)C(C)C)[C@@H](C)CC)C(C)C)[C@@H](C)O)C(=O)O [Peptide 1601.42] yielded an IC50 (DRB4*0101) of 16 nM, an IC50 (DRB1*1501) of 10 nM and an IC50 (DR7 (DRB1*0701)) of 0.009 µM.
Compound CC[C@H](C)[C@H](NC(=O)[C@@H](N)Cc1c[nH]c2ccccc12)C(=O)N[C@H](C(=O)N[C@@H](CCC(N)=O)C(=O)N[C@@H](CS)C(=O)N[C@@H](Cc1ccccc1)C(=O)N[C@@H](CC(C)C)C(=O)N1CCC[C@H]1C(=O)N[C@H](C(=O)N[C@@H](Cc1ccccc1)C(=O)N[C@@H](CC(C)C)C(=O)N[C@@H](C)C(=O)N[C@@H](CCC(N)=O)C(=O)N1CCC[C@H]1C(=O)N1CCC[C@H]1C(=O)N[C@@H](CO)C(=O)NCC(=O)N[C@@H](CCC(N)=O)C(=O)N[C@@H](CCCNC(=N)N)C(=O)N[C@@H](CCCNC(=N)N)C(=O)O)C(C)C)[C@@H](C)O [Peptide F189.02] has an IC50 (DRB4*0101) of 688 nM, an IC50 (DRB1*1302) of 23600 nM and an IC50 (DRB1*1501) of 726 nM.
With CC[C@H](C)[C@H](NC(=O)[C@H](CCCCN)NC(=O)[C@H](CC(N)=O)NC(=O)[C@@H](NC(=O)[C@@H](NC(=O)[C@H](CC(C)C)NC(=O)[C@@H](NC(=O)[C@H](CO)NC(=O)[C@H](CC(C)C)NC(=O)[C@H](C)N)[C@@H](C)O)C(C)C)C(C)C)C(=O)N[C@@H](CCCNC(=N)N)C(=O)NCC(=O)N[C@H](C(=O)N[C@@H](Cc1ccccc1)C(=O)N[C@@H](CCCCN)C(=O)O)[C@@H](C)O [Peptide F196.09] the IC50 (DRB5*0101) was 0.038 µM, the IC50 (DRB4*0101) was 214 nM and the IC50 (DRB1*1302) was 7.6 nM. It also gave an IC50 (DRB1*1501) of 160 nM and an IC50 (DRB1*1101) of 32 nM.
ACSWGMVMLMLVRFK [Peptide 89.0043] gave an IC50 (DRB1*0901) of 10.5 µM, an IC50 (DRB5*0101; Binding affinity DRB5 *0101) of 5.63 µM and an IC50 (DRB1*0802) of 2.9 µM. It also gave an IC50 (DRB4*0101) of 467 nM, an IC50 (DR7 (DRB1*0701)) of over 20 µM and an IC50 (DRB1*1101; Binding affinity DRB1 *1101) of 679 nM.
ACSWGMVVLLLVRYK [Peptide 89.0004] was tested, and the IC50 (DRB1*0901) was 2 µM, the IC50 (DRB5*0101; Binding affinity DRB5 *0101) was over 20 µM and the IC50 (DR1 (DRB1*0101)) was 1020 nM. It also gave an IC50 (DRB1*0802) of 4.77 µM, an IC50 (DRB4*0101) of 1520 nM and an IC50 (DRB1*1501) of 870 nM. For the same compound, the IC50 (DR4w4 (DRB1*0401)) was 701 nM.
In the case of EIYIIEETTCTLVAG [Peptide 90.0251], the IC50 (DRB4*0101) is reported as 1100 nM and the IC50 (DRB1*1302) is reported as 1110 nM.
In the case of ELQNTTYLWWV [Peptide 9013.0325], the IC50 (HLA-A*0201 (HLA-A2.1)) is reported as 3 µM, the IC50 (A*6802) is reported as 0.157 µM and the IC50 (A*0206) is reported as over 20000 nM.
For GHQVVPPMAVSKAKA [Peptide 90.0011], the IC50 (DRB5*0101; Binding affinity DRB5 *0101) was 5.32 µM, the IC50 (DRB1*0802) was 1.63 µM and the IC50 (DRB4*0101) was 66 nM. It also gave an IC50 (DRB1*1302) of 2580 nM, an IC50 (DR4w4 (DRB1*0401)) of 451 nM and an IC50 (DR7 (DRB1*0701)) of 6.24 µM. For the same compound, the IC50 (DRB1*1101; Binding affinity DRB1 *1101) was 2060 nM.
Compound GKSYFGMSLIHFLKG [Peptide 89.0146] has an IC50 (DRB1*0901) of over 20 µM, an IC50 (DRB5*0101; Binding affinity DRB5 *0101) of over 20 µM and an IC50 (DR1 (DRB1*0101)) of over 20000 nM. For the same compound, the IC50 (DRB1*0802) was over 20 µM, the IC50 (DRB1*1302) was over 20000 nM and the IC50 (DRB1*1501) was over 20000 nM. For the same compound, the IC50 (DR4w4 (DRB1*0401)) was 561 nM, the IC50 (DR7 (DRB1*0701)) was over 20 µM and the IC50 (DRB1*1101; Binding affinity DRB1 *1101) was over 20000 nM.
Work on GQFRVYPEV [Peptide 9013.0038] yielded an IC50 (A*6802) of over 20 µM and an IC50 (A*0206) of 43 nM.
Compound IQNIIQNDV [Peptide 9013.0032] has an IC50 (A*0202) of 1930 nM, an IC50 (HLA-A*0201 (HLA-A2.1)) of 16.2 µM and an IC50 (A*6802) of over 20 µM.
In the case of KILQQLLFI [Peptide 1525.21], the IC50 (HLA-A*0201 (HLA-A2.1)) is reported as 0.041 µM, the IC50 (A*6802) is reported as over 20 µM and the IC50 (A*0206) is reported as 51 nM.
With KLFCADPAL [Peptide 1578.50] the IC50 (A*0202) was 6.8 nM and the IC50 (A*6802) was over 20 µM.
In the case of LIRLENAILFTAREH [Peptide 90.0002], the IC50 (DRB5*0101; Binding affinity DRB5 *0101) is reported as 4.27 µM, the IC50 (DR1 (DRB1*0101)) is reported as 23 nM and the IC50 (DRB1*0802) is reported as 11.7 µM. For the same compound, the IC50 (DRB4*0101) was 339 nM, the IC50 (DRB1*1302) was 51 nM and the IC50 (DRB1*1501) was 2070 nM. It also gave an IC50 (DR4w4 (DRB1*0401)) of 1220 nM and an IC50 (DRB1*1101; Binding affinity DRB1 *1101) of 5690 nM.
Compound LKTIIKPHCMYYHMQ [Peptide 89.0119] has an IC50 (DRB1*0901) of over 20 µM, an IC50 (DRB5*0101) of over 20 µM and an IC50 (DR1 (DRB1*0101)) of over 20000 nM. It also gave an IC50 (DRB1*0802) of over 20 µM, an IC50 (DRB4*0101) of 1680 nM and an IC50 (DRB1*1302) of 104 nM. It also gave an IC50 (DRB1*1501) of 17400 nM, an IC50 (DR4w4 (DRB1*0401)) of 2000 nM and an IC50 (DR7 (DRB1*0701)) of over 20 µM. It also gave an IC50 (DRB1*1101; Binding affinity DRB1 *1101) of over 20000 nM.
LLLPPLERLTL [Peptide 73.0157] was tested, and the IC50 (A*6802) was over 20 µM.
LQLPPLERLTV [Peptide 73.0158] was tested, and the IC50 (A*6802) was over 20 µM.
